Target: T1, AhR (Homo sapiens, UniProt P35869)
T1 construct: endogenous in cells; host or cells: HaCaT keratinocytes
T1 sequence (P35869 11-848): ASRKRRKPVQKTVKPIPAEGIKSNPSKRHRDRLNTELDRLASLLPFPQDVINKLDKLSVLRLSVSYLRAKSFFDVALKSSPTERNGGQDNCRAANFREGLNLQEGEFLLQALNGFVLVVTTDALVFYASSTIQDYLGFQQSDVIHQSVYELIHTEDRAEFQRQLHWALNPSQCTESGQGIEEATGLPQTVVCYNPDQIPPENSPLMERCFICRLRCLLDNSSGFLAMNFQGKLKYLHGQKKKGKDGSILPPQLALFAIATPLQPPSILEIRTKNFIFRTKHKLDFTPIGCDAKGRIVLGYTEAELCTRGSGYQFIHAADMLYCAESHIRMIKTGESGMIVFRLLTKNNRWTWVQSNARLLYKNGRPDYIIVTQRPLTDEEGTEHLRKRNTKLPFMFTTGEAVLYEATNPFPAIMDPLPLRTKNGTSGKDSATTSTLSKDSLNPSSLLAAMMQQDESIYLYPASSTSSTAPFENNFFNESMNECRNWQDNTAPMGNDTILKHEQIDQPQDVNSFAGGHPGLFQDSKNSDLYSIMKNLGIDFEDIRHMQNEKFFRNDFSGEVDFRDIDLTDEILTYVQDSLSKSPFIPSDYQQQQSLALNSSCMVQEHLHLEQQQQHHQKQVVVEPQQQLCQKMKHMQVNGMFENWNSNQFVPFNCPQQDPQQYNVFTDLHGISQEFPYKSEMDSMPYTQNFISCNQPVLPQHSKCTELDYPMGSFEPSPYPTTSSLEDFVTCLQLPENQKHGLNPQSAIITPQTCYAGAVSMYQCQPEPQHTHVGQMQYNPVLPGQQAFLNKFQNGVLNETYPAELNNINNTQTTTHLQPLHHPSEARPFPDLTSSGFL
Assay: Quantification of AhR inhibition via determination of CYP1A1-mRNA in UVB-irradiated HaCaT keratinocytes
Assay type: cell-based
Settings: HaCaT cells, 100 J/m^2 UVB, pretreated 1 h before irradiation, RNA after 4 h, relative to control (PBS, 0.1% DMSO, UVB-irradiated)
Description: HaCaT keratinocytes were cultivated in DMEM containing 10% of foetal calf serum. The cells were irradiated with UVB in PBS (phosphate buffered saline). For irradiation with UVB we used a TL20W/12RS lamp, which contains four parallel tubes (Philips, Eindhoven, The Netherlands) and emits the bulk of its energy in the UVB range (290-320 nm). The emission peak of the lamp is at 310 nm. Control cells were subjected to the same treatment but were not irradiated. To inhibit the AhR, the cells were treated with the test substances 1 h prior to irradiation.
HaCaT cells were irradiated with 100 J/m^2 of UVB. Some cells were pretreated with the test substances 1 h prior to irradiation. […] The PCR mix was composed of 1/10 by volume of QuantiTect® SYBR Green PCR Master Mix (Qiagen, Hilden, Germany), 0.5 μmol/l of the appropriate primer, 2 μl of cDNA and DEPC-treated (diethyl pyrocarbonate-treated) H2O in a final volume of 20 μl. […] The PCR conditions were as follows: 40 cycles of 15 sec at 94° C. for denaturing, 25 sec at 60° C. for primer attachment, 30 sec at 72° C. for extension and 2 sec at 72° C. for fluorescence measurement. […] The PCR products were quantified via a fragment-specific standard curve using LightCycler software 3. […]
Quantification of AhR Inhibition Via Determination of CYP1A1-mRNA

SMILES	inhibition at 350 µM (0.35 mM, read-out: CYP1A1 inhibition in presence of UVB light) [%]	CYP1A1 inhibition in presence of UVB light (0.0001 wt. %) [%]
Oc1ccc2c(c1)OC[C@H]1c3cc4c(cc3O[C@@H]21)OCO4 [Maackiain]	60	–
Oc1ccc2c(c1)OC1c3cc(O)c(O)cc3COC1C2O (centres unmarked) [Peltogynol]	–	60

Source: patent publication US20090208432A1, “AH Receptor Antagonists” (SYMRISE GmbH & Co., KG, priority 2006, published 2009)
